In BindingDB's records for doi:10.1021/acs.jmedchem.8b00931 (Umr 7273 Cnrs, 2018):

What was measured:
[1] = Inhibition of Rhinovirus A85 capsid infected in human HeLa Rh cells assessed as reduction in virus-induced cytopathic effect after 3 days by MTS assay
[2] = Inhibition of Rhinovirus A89 capsid infected in human HeLa Rh cells assessed as reduction in virus-induced cytopathic effect after 3 days by MTS assay
[3] = Inhibition of Rhinovirus B14 capsid infected in human HeLa Rh cells assessed as reduction in virus-induced cytopathic effect after 3 days by MTS assay
[4] = Inhibition of Rhinovirus A02 capsid infected in human HeLa Rh cells assessed as reduction in virus-induced cytopathic effect after 3 days by MTS assay
[5] = Inhibition of Rhinovirus B70 capsid infected in human HeLa Rh cells assessed as reduction in virus-induced cytopathic effect after 3 days by MTS assay
[6] = Inhibition of Rhinovirus A08 capsid infected in human HeLa Rh cells assessed as reduction in virus-induced cytopathic effect after 3 days by MTS assay
[7] = Inhibition of Rhinovirus B42 capsid infected in human HeLa Rh cells assessed as reduction in virus-induced cytopathic effect after 3 days by MTS assay
[8] = Inhibition of Rhinovirus A28 capsid infected in human HeLa Rh cells assessed as reduction in virus-induced cytopathic effect after 3 days by MTS assay

`Cn1cc(-c2ccc(C[C@@H](O)c3ccc(-n4cccn4)cc3)c([N+](=O)[O-])c2)cn1` showed an EC50 [1] of over 128000 nM, an EC50 [2] of 190 nM and an EC50 [3] of 2500 nM. It also gave an EC50 [4] of over 128000 nM, an EC50 [5] of over 128000 nM and an EC50 [6] of over 128000 nM. The EC50 [7] was over 128000 nM and the EC50 [8] was over 128000 nM.
In the case of `O=[N+]([O-])c1cc(Br)ccc1CC(O)c1ccc(-n2cccn2)cc1` (stereo not given), the EC50 [3] is reported as 250 nM.
Work on `Cn1cc(-c2ccc(C[C@H](O)c3ccc(-n4cccn4)cc3)c([N+](=O)[O-])c2)cn1` yielded an EC50 [1] of over 128000 nM, an EC50 [2] of 2400 nM and an EC50 [3] of 35 nM. The EC50 [4] was over 128000 nM, the EC50 [5] was 17 nM and the EC50 [6] was over 128000 nM. It also gave an EC50 [7] of over 128000 nM and an EC50 [8] of over 128000 nM.
Compound `Cn1cc(-c2ccc(C[C@H](O)c3ccc(-n4cncn4)cc3)c([N+](=O)[O-])c2)cn1` has an EC50 [1] of over 128000 nM, an EC50 [2] of over 128000 nM and an EC50 [3] of 60 nM. The EC50 [4] was over 128000 nM, the EC50 [5] was 50 nM and the EC50 [6] was over 128000 nM. The EC50 [7] was over 128000 nM and the EC50 [8] was over 128000 nM.
`O=[N+]([O-])c1cc(-c2cncs2)ccc1CC(O)c1ccc(-n2cncn2)cc1` (stereo not given) showed an EC50 [3] of 400 nM.
`Cc1noc(C)c1-c1ccc(CC(O)c2ccc(-n3cncn3)cc2)c([N+](=O)[O-])c1` (stereo not given) gave an EC50 [3] of over 247000 nM.
Compound `O=[N+]([O-])c1cc(Br)ccc1CC(O)c1ccc(-n2cncn2)cc1` (stereo not given) has an EC50 [3] of 250 nM.
`Cc1noc(C)c1-c1ccc(CC(O)c2ccc(-n3cccn3)cc2)c([N+](=O)[O-])c1` (stereo not given) showed an EC50 [3] of over 247000 nM.
Compound `Cn1cc(-c2ccc(CC(O)c3ccc(-n4cccn4)cc3)c([N+](=O)[O-])c2)cn1` (stereo not given) has an EC50 [3] of 200 nM.
Compound `O=[N+]([O-])c1cc(Cl)ccc1CC(O)c1ccc(-n2cccn2)cc1` (stereo not given) has an EC50 [3] of 128 nM.
`Cn1nc(C(F)(F)F)cc1-c1ccc(CC(O)c2ccc(-c3ccncc3)cc2)c([N+](=O)[O-])c1` (stereo not given) showed an EC50 [3] of 1000 nM.
`O=[N+]([O-])c1cc(Br)ccc1CC(O)c1ccc(-c2ccncc2)cc1` (stereo not given) showed an EC50 [3] of 590 nM.
`Cn1cc(-c2ccc(C[C@@H](O)c3ccc(-n4cncn4)cc3)c([N+](=O)[O-])c2)cn1` gave an EC50 [1] of over 128000 nM, an EC50 [2] of 1500 nM and an EC50 [3] of over 128000 nM. It also gave an EC50 [4] of over 128000 nM, an EC50 [5] of over 20000 nM and an EC50 [6] of over 128000 nM. For the same compound, the EC50 [7] was over 128000 nM and the EC50 [8] was over 128000 nM.
`COC(=O)c1ccc(CC(O)c2ccc(-c3ccncc3)cc2)c([N+](=O)[O-])c1` (stereo not given) showed an EC50 [3] of 6400 nM.
`Cn1cc(-c2ccc(CC(O)c3ccc(-n4cncn4)cc3)c([N+](=O)[O-])c2)cn1` (stereo not given) showed an EC50 [3] of 180 nM.
For `O=[N+]([O-])c1cc(-c2ccco2)ccc1CC(O)c1ccc(-c2ccncc2)cc1` (stereo not given), the EC50 [3] was 1200 nM.
In the case of `O=[N+]([O-])c1cc(F)ccc1CC(O)c1ccc(-n2cccn2)cc1` (stereo not given), the EC50 [3] is reported as 8700 nM.
Compound `Cn1nc(C(F)(F)F)cc1-c1ccc(CC(O)c2ccc(-n3cccn3)cc2)c([N+](=O)[O-])c1` (stereo not given) has an EC50 [3] of 500 nM.
Work on `O=[N+]([O-])c1cc(-c2cccs2)ccc1CC(O)c1ccc(-c2ccncc2)cc1` (stereo not given) yielded an EC50 [3] of 1300 nM.
`Cc1cc(CCCOc2c(C)cc(-c3noc(C(F)(F)F)n3)cc2C)on1` [3-(3,5-dimethyl-4-(3-(3-methylisoxazol-5-yl)propoxy)phenyl)-5-(trifluoromethyl)-1,2,4-oxadiazole] showed an EC50 [1] of 11 nM, an EC50 [2] of 4 nM and an EC50 [3] of 30 nM. It also gave an EC50 [4] of 15 nM, an EC50 [5] of 167 nM and an EC50 [6] of 490 nM. It also gave an EC50 [7] of over 128000 nM and an EC50 [8] of 15 nM.
